Measured values: patent publication US11149248B2, “Bioreactor system” (KIYATEC INC., priority 2013, dated 2021)

What was measured:
[1] = test system: Human mammary epithelial cells (hMEC); assay: LDH release cytotoxicity assay in 2D, 3D static and 3D perfusion culture; format: cell-based; conditions: 2% triton 2 hours prior to analysis, positive control
Protocol: (§1) The experiment was performed in a single chamber culture system (one chamber of a 3DKUBE in an “independent chamber” configuration) or using wells in a 12-well plate. […] The inlet port was connected to an opening in a first side of the 3DKUBE cell module and the outlet port connected to an opening in a second side of the cell module. The chamber featured an imaging widow enabling non-lytic analysis inside the chamber through various spectrophotometric and other techniques.
(§2) Human mammary epithelial cells (hMEC) were utilized. For 2D experiments hMEC were cultured on the bottom of 12-well plates as per typical cell culture practices (referred to as “2D” experiments). For 3D static and perfusion experiments hMEC were suspended in a Matrigel™:Collagen (rat tail collagen Type I) mixture which was added to silk fibroin scaffolds (H 2.5 mm×W 5 mm) contained in 12-well plates (referred to as “3D static”) or 3DKUBEs (referred to as “3D perfusion”). […]
(§3) The secretion of lactate dehydrogenase (LDH) is a non-lytic assay of cytotoxicity. […] The cells were cultured in these 2D, 3D static, or 3D perfusion configurations over 7 days in media alone or in media with increasing concentrations of cisplatin (a DNA alkylating agent used in chemotherapy) and analyzed via PrestoBlue or LDH release (examples of non-lytic means of assessing cell viability or cytotoxicity). […]

[2] = test system: Human mammary epithelial cells (hMEC); assay: PrestoBlue cell viability analysis in 2D, 3D static and 3D perfusion culture; format: cell-based; conditions: hMEC cultured over 7 days with increasing concentrations of cisplatin, 3D static, 3D perfusion (FIG. 16)
Protocol: as §1, §2, §3

Molecule | maximal cell lysis (LDH release) ([1]; 2D and 3D static (12-well plates)) | increase of LDH release ([1]; 3D perfusion (3DKUBE)) | cell viability (PrestoBlue analysis) [2]
triton | reduced maximal cell lysis | approximately 2.5 fold | –
N.N.[Cl][Pt][Cl] [cisplatin] | – | – | decrease in cell viability that is only statistically significant in 3D static and 3D perfusion
